Measurements: US20240116985A1, “STAPLED PEPTIDES AND METHODS THEREOF” (priority 2020, published 2024)
pIC50: −log10 of the molar value. Where two headings read alike, the source gives them in different places.

Columns and labels:
[1] = target: T1, full-length beta-Catenin (Uniprot ID P35222) (Homo sapiens, UniProt P35222); assay: Fluorescence polarization IC50 (beta-catenin / 5FAM-TCF4 10-53 competition); assay type: binding; settings: read-out: beta-Catenin FP IC50
T1 construct: 10 nM full-length beta-Catenin (Uniprot ID P35222)
T1 sequence (P35222 1-781): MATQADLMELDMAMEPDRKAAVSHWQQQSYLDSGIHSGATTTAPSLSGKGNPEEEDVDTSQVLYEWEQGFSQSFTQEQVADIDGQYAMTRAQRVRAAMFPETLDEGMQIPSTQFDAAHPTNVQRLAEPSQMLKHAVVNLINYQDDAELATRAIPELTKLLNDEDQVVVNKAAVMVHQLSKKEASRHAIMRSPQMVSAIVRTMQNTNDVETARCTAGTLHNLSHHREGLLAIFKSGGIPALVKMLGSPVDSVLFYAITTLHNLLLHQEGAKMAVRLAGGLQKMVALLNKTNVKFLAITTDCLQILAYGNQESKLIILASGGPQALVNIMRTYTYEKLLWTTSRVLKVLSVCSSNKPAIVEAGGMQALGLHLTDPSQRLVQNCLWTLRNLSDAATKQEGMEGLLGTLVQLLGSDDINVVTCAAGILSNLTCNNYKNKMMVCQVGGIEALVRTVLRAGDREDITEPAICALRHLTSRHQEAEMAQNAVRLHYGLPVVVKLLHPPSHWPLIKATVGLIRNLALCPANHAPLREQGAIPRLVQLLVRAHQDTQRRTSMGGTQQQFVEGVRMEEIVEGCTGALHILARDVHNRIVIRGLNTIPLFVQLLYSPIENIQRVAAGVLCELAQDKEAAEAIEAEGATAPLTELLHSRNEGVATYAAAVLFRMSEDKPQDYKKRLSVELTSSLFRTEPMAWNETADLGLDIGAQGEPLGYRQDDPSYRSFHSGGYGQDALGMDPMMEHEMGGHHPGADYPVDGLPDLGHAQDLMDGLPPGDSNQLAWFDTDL

[2] = target: T2, beta-catenin/TCF4 engagement (Homo sapiens, UniProt P35222); assay: Nano-BRET target engagement assay (B-cat-Halo & TCF4-Luc in HEK293 cells); assay type: cell-based; settings: read-out: NanoBRET Abs IC50
T2 construct: expressed in transfected cells; host or cells: HEK293
T2 sequence (P35222 1-781): T1 sequence (P35222 1-781)

| SMILES | pIC50 ([1]; fluorescence polarization) | pIC50 ([2]; absolute IC50) | pIC50 [1] | pIC50 [2] |
| --- | --- | --- | --- | --- |
| CCCC[C@@H]1NC(=O)[C@H](CC(=O)O)NC(=O)[C@]2(CC=CCCCC3(CCCC=CCCCOC(=O)N4CC[C@@](C(=O)N[C@@H](Cc5ccsc5)C(=O)N[C@@H](Cc5csc6ccccc56)C(=O)N[C@@H](CCC(N)=O)C(N)=O)(C4)NC(=O)[C@H](CC(C)C)NC(=O)[C@H](Cc4ccccc4)NC(=O)[C@H](C)NC(=O)[C@H](C)NC(=O)[C@H](CC(=O)O)NC(=O)[C@H](CC(=O)O)NC3=O)NC1=O)CCCN2C(C)=O (stereo partly drawn) [I-1400, Ac-PL3-Asp-nLeu-B5-Asp-Asp-Ala-Ala-Phe-Leu-PyrS2-3Thi-BztA-Gln-NH2] | 8.30 | 4.69 | – | – |
| CC(=O)N1CCC[C@]12CC=CCCCC1(CCCC=CCCCOC(=O)N3CC[C@@](C(=O)N[C@@H](Cc4ccsc4)C(=O)N[C@@H](Cc4csc5ccccc45)C(=O)NC(CCCCNC(=O)c4ccc5c(c4)B(O)OC5)C(N)=O)(C3)NC(=O)[C@H](CC(C)C)NC(=O)[C@H](Cc3ccccc3)NC(=O)[C@H](C)NC(=O)[C@H](C)NC(=O)[C@H](CN(CC(=O)O)CC(F)(F)F)NC(=O)[C@H](CC(=O)O)NC1=O)NC(=O)[C@H](CC(C)(C)C)NC(=O)[C@H](CC(=O)O)NC2=O (stereo partly drawn) [I-2187, Ac-PL3-Asp-Npg-B5-Asp-TfeGA-Ala-Ala-Phe-Leu-PyrS2-3Thi-BztA-BnBoroleK-NH2] | – | – | 7.55 | 4.97 |

Further lines, with some results ahead:

| pIC50 ([1]; fluorescence polarization) | pIC50 ([2]; absolute IC50) | SMILES | pIC50 [1] | pIC50 [2] |
| --- | --- | --- | --- | --- |
| 7.44 | < 4.70 | CC(=O)N1CCC[C@]12CC=CCCCC1(CCCC=CCCCCCC[C@@](C)(C(=O)N[C@@H](Cc3ccccc3)C(=O)N[C@@H](Cc3csc4ccccc34)C(=O)N[C@@H](CCC(N)=O)C(N)=O)NC(=O)[C@H](CCC(N)=O)NC(=O)[C@H](Cc3ccccc3)NC(=O)[C@H](C)NC(=O)[C@H](C)NC(=O)[C@H](CCC(=O)O)NC(=O)[C@H](CC(=O)O)NC1=O)NC(=O)[C@H](CCC(N)=O)NC(=O)[C@H](CC(=O)O)NC2=O (stereo partly drawn) [I-1539, Ac-PL3-Asp-Gln-B5-Asp-Glu-Ala-Ala-Phe-Gln-S8-Phe-BztA-Gln-NH2] | – | – |
| 8.00 | 4.50 | CC(=O)N1CCC[C@]12CC=CCCCC1(CCCC=CCCCOC(=O)N3CC[C@@](C(=O)N[C@@H](Cc4ccsc4)C(=O)N[C@@H](Cc4csc5ccccc45)C(=O)N[C@@H](CCO)C(N)=O)(C3)NC(=O)[C@H](CC(C)C)NC(=O)[C@H](Cc3ccccc3)NC(=O)[C@H](C)NC(=O)[C@H](C)NC(=O)[C@H](CC(=O)O)NC(=O)[C@H](CC(=O)O)NC1=O)NC(=O)[C@H](Cc1ccccc1)NC(=O)[C@H](CC(=O)O)NC2=O (stereo partly drawn) [I-1510, Ac-PL3-Asp-Phe-B5-Asp-Asp-Ala-Ala-Phe-Leu-PyrS2-3Thi-BztA-Hse-NH2] | – | – |
| 7.30 | 4.94 | CC(=O)N1CCC[C@]12CC=CCCCC1(CCCC=CCCCOC(=O)N3CC[C@@](C(=O)N[C@@H](Cc4ccsc4)C(=O)N[C@@H](Cc4csc5ccccc45)C(=O)N[C@@H](Cc4c[nH]c5ccccc45)C(N)=O)(C3)NC(=O)[C@H](CC(C)C)NC(=O)[C@H](Cc3ccccc3)NC(=O)[C@H](C)NC(=O)[C@H](C)NC(=O)[C@H](CC(=O)O)NC(=O)[C@H](CC(=O)O)NC1=O)NC(=O)[C@H](CC(C)(C)C)NC(=O)[C@H](CC(=O)O)NC2=O (stereo partly drawn) [I-1497, Ac-PL3-Asp-Npg-B5-Asp-Asp-Ala-Ala-Phe-Leu-PyrS2-3Thi-BztA-Trp-NH2] | – | – |
| 7.21 | 4.43 | CC(=O)N1CCC[C@]12CC=CCCCC1(CCCC=CCCCCCC[C@@](C)(C(=O)N[C@@H](Cc3ccccc3)C(=O)N[C@@H](Cc3csc4ccccc34)C(=O)N[C@@H](CCC(N)=O)C(N)=O)NC(=O)[C@H](CCO)NC(=O)[C@H](Cc3ccccc3)NC(=O)[C@H](C)NC(=O)[C@H](C)NC(=O)[C@H](CCC(=O)O)NC(=O)[C@H](CC(=O)O)NC1=O)NC(=O)[C@H](CO)NC(=O)[C@H](CC(=O)O)NC2=O (stereo partly drawn) [I-1530, Ac-PL3-Asp-Ser-B5-Asp-Glu-Ala-Ala-Phe-Hse-S8-Phe-BztA-Gln-NH2] | – | – |
